According to patent publication US7074789B2, “Kinase inhibitors” (Amgen Inc., priority 1999, dated 2006):
Read-outs that look alike come from different tables or passages of the source.

Legend:
Assay type in all cases: biochemical
Tek = molecular target: T1, Tek (Homo sapiens, UniProt Q02763); assay: Kinase inhibition assay (33P transfer), Tek; conditions: read-out: Tek-1
T1 construct: Kinases are expressed as either kinase domains or full length constructs; made in house
Summary of the method: (§1)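 Activity read as 33P incorporation from ATP into poly(Glu,Tyr) 4:1 or poly(Arg,Ser) 3:1 substrate bound to microtiter plates, measured by scintillation after acid washing. Enzymes were affinity-purified GST or polyHis fusions (kinase domain or full length) from E. coli or baculovirus; IC50 = 50% reduction in labelled phosphate.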

Lck = molecular target: T2, Lck (Homo sapiens, UniProt P06239); assay: Kinase inhibition assay (33P transfer), Lck; conditions: read-out: Lck-1
T2 construct: Kinases are expressed as either kinase domains or full length constructs; made in house
T2 sequence (P06239 whole entry, species assumed, the tested form may be a part): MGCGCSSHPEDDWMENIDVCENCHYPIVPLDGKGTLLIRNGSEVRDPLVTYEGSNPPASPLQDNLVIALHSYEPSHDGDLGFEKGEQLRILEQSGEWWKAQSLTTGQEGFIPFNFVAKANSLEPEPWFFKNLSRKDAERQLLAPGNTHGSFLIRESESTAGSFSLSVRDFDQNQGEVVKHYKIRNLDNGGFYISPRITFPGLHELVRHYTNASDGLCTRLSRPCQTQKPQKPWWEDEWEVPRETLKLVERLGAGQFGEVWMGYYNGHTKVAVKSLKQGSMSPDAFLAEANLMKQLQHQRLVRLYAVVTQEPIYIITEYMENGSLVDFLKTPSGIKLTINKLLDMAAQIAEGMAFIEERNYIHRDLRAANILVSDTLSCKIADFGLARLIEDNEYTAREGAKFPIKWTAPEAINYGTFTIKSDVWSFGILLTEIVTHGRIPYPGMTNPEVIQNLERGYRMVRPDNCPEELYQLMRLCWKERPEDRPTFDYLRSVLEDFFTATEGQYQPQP
Summary of the method: (§2)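 Steps: express kinase as GST or polyHistidine fusion in E. coli or High Five cells; optionally co-express or mix with regulatory polypeptides; incubate with 33P-ATP and plate-attached poly(Glu,Tyr) 4:1 or poly(Arg,Ser) 3:1; wash with 0.5% phosphoric acid; count by liquid scintillation.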

Itk = molecular target: T3, Itk (Homo sapiens, UniProt Q08881); assay: Kinase inhibition assay (33P transfer), Itk; conditions: read-out: Itk-1
T3 construct: Kinases are expressed as either kinase domains or full length constructs; made in house
T3 sequence (Q08881 1-620): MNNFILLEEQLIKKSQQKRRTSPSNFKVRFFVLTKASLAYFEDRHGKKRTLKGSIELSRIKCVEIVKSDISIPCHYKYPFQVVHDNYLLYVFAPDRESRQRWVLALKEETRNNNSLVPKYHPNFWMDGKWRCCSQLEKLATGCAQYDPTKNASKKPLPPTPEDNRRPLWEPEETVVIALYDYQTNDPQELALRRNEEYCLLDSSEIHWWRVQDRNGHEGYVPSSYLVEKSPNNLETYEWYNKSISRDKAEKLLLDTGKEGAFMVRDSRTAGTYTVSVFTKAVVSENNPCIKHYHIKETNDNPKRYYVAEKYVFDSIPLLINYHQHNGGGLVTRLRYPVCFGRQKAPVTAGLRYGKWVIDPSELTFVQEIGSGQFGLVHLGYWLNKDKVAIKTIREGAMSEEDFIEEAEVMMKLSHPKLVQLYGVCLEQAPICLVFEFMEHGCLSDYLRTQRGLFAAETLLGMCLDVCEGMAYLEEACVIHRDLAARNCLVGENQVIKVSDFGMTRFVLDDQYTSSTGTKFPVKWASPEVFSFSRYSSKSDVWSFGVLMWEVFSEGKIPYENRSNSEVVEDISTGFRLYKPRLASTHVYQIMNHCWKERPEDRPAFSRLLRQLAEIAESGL
Summary of the method: as §1

EGFR = molecular target: T4, EGFR (Homo sapiens, UniProt P00533); assay: Kinase inhibition assay (33P transfer), EGFR; conditions: Table 2, kinase inhibition class; read-out: EGFR-1
T4 construct: Kinases are expressed as either kinase domains or full length constructs; made in house
Summary of the method: as §1

IGFR-1 [1] = molecular target: T5, IGFR-1 (Homo sapiens, UniProt P08069); assay: Kinase inhibition assay (33P transfer), IGFR-1; conditions: Table 2, kinase inhibition class
T5 construct: Kinases are expressed as either kinase domains or full length constructs; made in house

c-Met = molecular target: T6, c-Met (Homo sapiens, UniProt P08581); assay: Kinase inhibition assay (33P transfer), c-Met; conditions: Table 2, kinase inhibition class; read-out: Met-1
T6 construct: Kinases are expressed as either kinase domains or full length constructs; made in house
T6 sequence (P08581 25-1390): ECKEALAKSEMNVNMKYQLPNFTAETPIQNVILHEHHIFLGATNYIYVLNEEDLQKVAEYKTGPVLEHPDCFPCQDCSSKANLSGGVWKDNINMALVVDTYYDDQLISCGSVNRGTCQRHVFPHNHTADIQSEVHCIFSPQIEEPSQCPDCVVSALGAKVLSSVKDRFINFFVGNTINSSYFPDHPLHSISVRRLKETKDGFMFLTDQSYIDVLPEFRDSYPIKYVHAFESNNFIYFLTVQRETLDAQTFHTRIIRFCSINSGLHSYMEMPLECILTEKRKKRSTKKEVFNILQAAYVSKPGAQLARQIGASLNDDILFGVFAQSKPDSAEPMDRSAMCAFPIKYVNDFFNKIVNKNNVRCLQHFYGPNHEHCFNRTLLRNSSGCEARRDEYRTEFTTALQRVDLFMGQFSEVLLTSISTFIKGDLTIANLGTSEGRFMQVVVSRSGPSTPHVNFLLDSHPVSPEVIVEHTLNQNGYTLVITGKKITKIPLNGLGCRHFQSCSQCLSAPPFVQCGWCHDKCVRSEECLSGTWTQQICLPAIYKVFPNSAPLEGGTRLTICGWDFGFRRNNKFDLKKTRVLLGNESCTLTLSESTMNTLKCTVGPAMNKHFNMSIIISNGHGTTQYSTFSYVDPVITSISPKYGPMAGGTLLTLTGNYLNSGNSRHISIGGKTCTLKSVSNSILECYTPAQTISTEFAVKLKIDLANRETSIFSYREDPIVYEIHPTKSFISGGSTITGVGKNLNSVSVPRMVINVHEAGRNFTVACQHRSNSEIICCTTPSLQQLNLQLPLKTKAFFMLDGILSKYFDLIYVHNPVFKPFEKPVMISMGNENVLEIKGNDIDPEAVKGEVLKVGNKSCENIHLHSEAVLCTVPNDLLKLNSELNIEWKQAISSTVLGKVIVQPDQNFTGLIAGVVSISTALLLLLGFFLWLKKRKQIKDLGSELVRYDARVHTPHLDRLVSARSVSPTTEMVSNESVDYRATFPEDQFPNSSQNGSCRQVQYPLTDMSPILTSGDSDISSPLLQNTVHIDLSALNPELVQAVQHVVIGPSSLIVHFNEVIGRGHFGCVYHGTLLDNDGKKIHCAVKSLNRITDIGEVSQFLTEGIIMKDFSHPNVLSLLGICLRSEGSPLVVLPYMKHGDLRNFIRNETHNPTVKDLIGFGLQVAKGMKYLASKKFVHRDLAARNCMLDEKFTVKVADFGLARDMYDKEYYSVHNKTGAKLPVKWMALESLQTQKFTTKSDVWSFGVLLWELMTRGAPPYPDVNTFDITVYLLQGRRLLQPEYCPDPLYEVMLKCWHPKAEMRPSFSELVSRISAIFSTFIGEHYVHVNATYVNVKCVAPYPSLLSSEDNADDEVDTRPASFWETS
Summary of the method: as §1

AKT = molecular target: T7, AKT (Homo sapiens, UniProt Q9Y243); assay: Kinase inhibition assay (33P transfer), AKT; conditions: Table 2, kinase inhibition class; read-out: AKT3-1
T7 construct: Kinases are expressed as either kinase domains or full length constructs; made in house
T7 sequence (Q9Y243 whole entry, the tested form may be a part): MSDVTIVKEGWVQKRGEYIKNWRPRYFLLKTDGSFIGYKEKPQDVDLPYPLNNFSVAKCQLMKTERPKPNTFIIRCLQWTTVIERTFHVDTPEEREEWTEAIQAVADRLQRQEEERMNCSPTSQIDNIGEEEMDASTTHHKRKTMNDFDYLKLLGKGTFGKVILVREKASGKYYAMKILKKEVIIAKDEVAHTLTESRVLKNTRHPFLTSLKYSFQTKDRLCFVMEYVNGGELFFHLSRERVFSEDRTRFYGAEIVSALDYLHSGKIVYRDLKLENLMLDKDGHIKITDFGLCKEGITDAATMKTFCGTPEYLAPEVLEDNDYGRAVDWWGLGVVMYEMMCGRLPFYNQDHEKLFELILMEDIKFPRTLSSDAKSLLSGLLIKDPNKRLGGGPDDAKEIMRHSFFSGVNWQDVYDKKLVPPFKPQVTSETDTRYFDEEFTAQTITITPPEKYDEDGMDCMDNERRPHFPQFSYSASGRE
Summary of the method: as §2

Kdr = molecular target: T8, Kdr (Homo sapiens, UniProt P35968); assay: Kinase inhibition assay (33P transfer), Kdr; conditions: read-out: KDR-1
T8 construct: Kinases are expressed as either kinase domains or full length constructs; made in house
T8 sequence (P35968 20-1356, species assumed): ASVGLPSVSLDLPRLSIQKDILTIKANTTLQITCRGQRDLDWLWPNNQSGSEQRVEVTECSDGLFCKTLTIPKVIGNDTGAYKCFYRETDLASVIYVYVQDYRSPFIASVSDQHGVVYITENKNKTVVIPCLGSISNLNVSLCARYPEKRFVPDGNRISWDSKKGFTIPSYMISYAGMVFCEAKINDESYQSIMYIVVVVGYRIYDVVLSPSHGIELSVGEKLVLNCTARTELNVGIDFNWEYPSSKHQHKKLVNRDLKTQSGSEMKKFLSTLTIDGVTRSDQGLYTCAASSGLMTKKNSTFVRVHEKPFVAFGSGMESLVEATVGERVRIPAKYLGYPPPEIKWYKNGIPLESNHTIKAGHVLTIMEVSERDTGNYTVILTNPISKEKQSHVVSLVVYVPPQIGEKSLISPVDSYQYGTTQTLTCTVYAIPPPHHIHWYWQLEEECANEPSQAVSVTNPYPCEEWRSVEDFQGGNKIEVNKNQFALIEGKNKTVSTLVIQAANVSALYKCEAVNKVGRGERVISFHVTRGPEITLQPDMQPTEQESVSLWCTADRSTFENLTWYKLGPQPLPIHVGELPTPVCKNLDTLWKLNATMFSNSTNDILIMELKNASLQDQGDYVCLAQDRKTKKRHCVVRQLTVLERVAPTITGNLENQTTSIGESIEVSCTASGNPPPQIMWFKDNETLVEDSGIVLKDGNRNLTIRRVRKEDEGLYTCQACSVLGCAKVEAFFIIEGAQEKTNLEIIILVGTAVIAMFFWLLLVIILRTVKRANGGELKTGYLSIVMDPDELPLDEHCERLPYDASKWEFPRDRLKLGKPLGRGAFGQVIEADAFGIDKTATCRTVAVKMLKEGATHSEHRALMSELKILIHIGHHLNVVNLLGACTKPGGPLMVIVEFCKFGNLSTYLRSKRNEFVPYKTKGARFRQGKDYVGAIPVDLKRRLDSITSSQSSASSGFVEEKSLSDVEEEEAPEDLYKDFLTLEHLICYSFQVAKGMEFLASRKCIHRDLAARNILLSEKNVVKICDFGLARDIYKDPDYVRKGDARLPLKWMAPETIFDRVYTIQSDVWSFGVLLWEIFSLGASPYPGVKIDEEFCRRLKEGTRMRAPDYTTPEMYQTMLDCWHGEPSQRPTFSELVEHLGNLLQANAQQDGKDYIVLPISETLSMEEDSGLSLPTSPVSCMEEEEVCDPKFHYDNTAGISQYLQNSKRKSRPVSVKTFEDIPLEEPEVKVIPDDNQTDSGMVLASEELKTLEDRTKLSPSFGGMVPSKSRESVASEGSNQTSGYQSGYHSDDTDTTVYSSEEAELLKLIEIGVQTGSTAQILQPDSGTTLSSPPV
Summary of the method: as §2

Zap-70 = molecular target: T9, Zap-70 (Homo sapiens, UniProt P43403); assay: Kinase inhibition assay (33P transfer), Zap-70; conditions: read-out: Zap-1
T9 construct: Kinases are expressed as either kinase domains or full length constructs; made in house
T9 sequence (P43403 1-619): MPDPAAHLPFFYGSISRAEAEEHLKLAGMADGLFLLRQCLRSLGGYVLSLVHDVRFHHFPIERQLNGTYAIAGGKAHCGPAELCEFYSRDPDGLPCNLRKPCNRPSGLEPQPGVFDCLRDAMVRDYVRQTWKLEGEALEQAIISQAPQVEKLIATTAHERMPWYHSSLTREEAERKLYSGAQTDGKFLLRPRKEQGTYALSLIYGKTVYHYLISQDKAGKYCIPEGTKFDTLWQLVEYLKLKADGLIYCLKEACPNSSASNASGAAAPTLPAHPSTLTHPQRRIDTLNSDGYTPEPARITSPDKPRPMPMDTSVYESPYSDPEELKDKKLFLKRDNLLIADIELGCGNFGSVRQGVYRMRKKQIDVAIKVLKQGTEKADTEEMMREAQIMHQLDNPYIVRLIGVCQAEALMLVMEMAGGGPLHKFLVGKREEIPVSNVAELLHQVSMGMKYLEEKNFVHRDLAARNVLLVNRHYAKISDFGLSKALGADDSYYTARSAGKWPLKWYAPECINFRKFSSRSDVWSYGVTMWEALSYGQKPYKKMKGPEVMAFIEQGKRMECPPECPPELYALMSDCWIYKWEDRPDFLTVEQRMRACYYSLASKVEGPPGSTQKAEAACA
Summary of the method: as §2

IGFR-1 [2] = molecular target: T5, IGFR-1; assay: Kinase inhibition assay, IGFR-1 (Table 2); conditions: Table 2, kinase inhibition class
PDGFRB = molecular target: T10, PDGFRB (Homo sapiens, UniProt P09619); assay: Kinase inhibition assay (33P transfer), PDGFRB; conditions: read-out: PDGFRB-1
T10 construct: Kinases are expressed as either kinase domains or full length constructs; made in house

ErbB2 = molecular target: T11, ErbB2 (Homo sapiens, UniProt P04626); assay: Kinase inhibition assay (33P transfer), ErbB2; conditions: read-out: ErbB2-2
T11 construct: Kinases are expressed as either kinase domains or full length constructs; made in house
Summary of the method: as §1

T1 sequence (Q02763 23-1124, species assumed): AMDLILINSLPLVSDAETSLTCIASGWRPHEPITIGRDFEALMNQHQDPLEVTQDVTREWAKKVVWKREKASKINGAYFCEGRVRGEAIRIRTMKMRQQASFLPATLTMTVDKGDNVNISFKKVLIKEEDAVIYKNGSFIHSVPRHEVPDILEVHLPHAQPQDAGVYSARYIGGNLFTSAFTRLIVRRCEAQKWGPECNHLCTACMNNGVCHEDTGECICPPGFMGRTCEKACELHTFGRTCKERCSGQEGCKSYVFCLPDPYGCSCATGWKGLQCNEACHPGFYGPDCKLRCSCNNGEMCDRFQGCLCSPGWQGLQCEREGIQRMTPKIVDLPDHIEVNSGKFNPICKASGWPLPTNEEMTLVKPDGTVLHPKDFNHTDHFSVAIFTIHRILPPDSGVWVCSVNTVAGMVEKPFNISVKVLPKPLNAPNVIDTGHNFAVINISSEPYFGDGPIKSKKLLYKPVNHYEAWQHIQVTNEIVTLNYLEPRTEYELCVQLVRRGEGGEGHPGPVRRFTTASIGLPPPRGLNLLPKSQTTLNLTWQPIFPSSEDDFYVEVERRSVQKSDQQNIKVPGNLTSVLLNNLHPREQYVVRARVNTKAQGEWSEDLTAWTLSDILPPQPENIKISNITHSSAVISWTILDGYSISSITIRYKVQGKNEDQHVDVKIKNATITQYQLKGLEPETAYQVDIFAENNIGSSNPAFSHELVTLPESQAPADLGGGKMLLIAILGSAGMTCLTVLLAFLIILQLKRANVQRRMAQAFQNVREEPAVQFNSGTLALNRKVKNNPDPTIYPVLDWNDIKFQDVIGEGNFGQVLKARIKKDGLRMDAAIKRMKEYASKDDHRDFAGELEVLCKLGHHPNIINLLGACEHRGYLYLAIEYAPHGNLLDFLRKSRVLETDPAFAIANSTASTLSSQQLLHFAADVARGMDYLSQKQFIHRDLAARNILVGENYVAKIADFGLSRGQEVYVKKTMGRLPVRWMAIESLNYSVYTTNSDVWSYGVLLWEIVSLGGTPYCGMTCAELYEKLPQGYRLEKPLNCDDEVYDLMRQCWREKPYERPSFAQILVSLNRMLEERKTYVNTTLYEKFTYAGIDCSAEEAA

Structure (SMILES) | IC50 (Tek) | IC50 (Lck; Table 3) | IC50 (Itk; Table 3) | IC50 (EGFR) | IC50 (IGFR-1 [1]) | IC50 (c-Met) | IC50 (AKT) | IC50 (Kdr; Table 3) | IC50 (Zap-70; Table 3) | IC50 (IGFR-1 [2]) | IC50 (Lck) | IC50 (Itk) | IC50 (PDGFRB) | IC50 (ErbB2) | IC50 (Kdr) | IC50 (Zap-70)
COc1ccc(Nc2ncnc(Nc3ccc(OCc4ccccc4)cc3)n2)cc1 [Compound 161] | 6.01 to 8.76 µM | > 11.3 µM | > 11.3 µM | > 11.3 µM | > 11.3 µM | > 11.3 µM | 6.01 to 8.76 µM | 1 to 6.01 µM | > 11.3 µM | – | – | – | – | – | – | –
COc1cc(Nc2ncnc(-n3c(NCC(N)=O)nc4ccccc43)n2)cc(OC)c1OC [Compound 389] | > 9.99 µM | > 9.99 µM | > 9.99 µM | > 9.99 µM | < 0.888 µM | > 9.99 µM | > 9.99 µM | > 9.99 µM | > 9.99 µM | – | – | – | – | – | – | –
COc1cc(Nc2ncnc(-n3nc(-c4ccccc4)cc3N)n2)cc(OC)c1OC [Compound 520] | > 10.7 µM | – | – | > 10.7 µM | – | > 10.7 µM | > 10.7 µM | – | – | 0.954 to 5.72 µM | 0.954 to 5.72 µM | 0.954 to 5.72 µM | > 10.7 µM | > 10.7 µM | > 10.7 µM | > 10.7 µM
COc1cc(Nc2ncnc(-n3c(NCc4ccc(C(F)(F)F)cc4)nc4ccccc43)n2)cc(OC)c1OC [Compound 598] | – | – | – | > 8.16 µM | – | > 8.16 µM | > 8.16 µM | – | – | > 8.16 µM | > 8.16 µM | > 8.16 µM | > 8.16 µM | 6.35 to 8.16 µM | 0.725 to 4.35 µM | > 8.16 µM

Second part, the compound after the results:

IC50 (Tek) | IC50 (Lck; Table 3) | IC50 (Itk; Table 3) | IC50 (EGFR) | IC50 (IGFR-1 [1]) | IC50 (c-Met) | IC50 (AKT) | IC50 (Kdr; Table 3) | IC50 (Zap-70; Table 3) | IC50 (IGFR-1 [2]) | IC50 (Lck) | IC50 (Itk) | IC50 (PDGFRB) | IC50 (ErbB2) | IC50 (Kdr) | IC50 (Zap-70) | Structure (SMILES)
> 11.3 µM | > 11.3 µM | > 11.3 µM | 1 to 6.01 µM | > 11.3 µM | 8.76 to 11.3 µM | 8.76 to 11.3 µM | > 11.3 µM | > 11.3 µM | – | – | – | – | – | – | – | COc1cccc(Nc2ncnc(Nc3ccc(OCc4ccccc4)cc3)n2)c1 [Compound 160]
1.18 to 7.11 µM | – | – | 1.18 to 7.11 µM | – | 1.18 to 7.11 µM | 1.18 to 7.11 µM | – | – | 1.18 to 7.11 µM | 1.18 to 7.11 µM | 1.18 to 7.11 µM | 1.18 to 7.11 µM | 1.18 to 7.11 µM | 1.18 to 7.11 µM | 7.11 to 10.4 µM | Nc1nc2ccccc2n1-c1ncnc(Nc2cccc(Cl)c2)n1 [Compound 474]
– | – | – | 4.56 to 6.65 µM | – | > 8.55 µM | > 8.55 µM | – | – | < 0.76 µM | 0.76 to 4.56 µM | > 8.55 µM | 0.76 to 4.56 µM | 4.56 to 6.65 µM | 0.76 to 4.56 µM | > 8.55 µM | COc1cc(Nc2ncnc(-n3c(NCc4ccc(N(C)C)cc4)nc4ccccc43)n2)cc(OC)c1OC [Compound 593]
– | – | – | 4.42 to 6.44 µM | – | > 8.28 µM | > 8.28 µM | – | – | > 8.28 µM | > 8.28 µM | > 8.28 µM | 4.42 to 6.44 µM | 0.736 to 4.42 µM | 6.44 to 8.28 µM | > 8.28 µM | COc1ccc(CNc2nc3ccccc3n2-c2ncnc(Nc3cc(OC)c(OC)c(OC)c3)n2)cc1OC [Compound 596]
– | – | – | 6.58 to 8.46 µM | – | > 8.46 µM | 4.51 to 6.58 µM | – | – | 6.58 to 8.46 µM | 0.752 to 4.51 µM | > 8.46 µM | 4.51 to 6.58 µM | 0.752 to 4.51 µM | 0.752 to 4.51 µM | > 8.46 µM | COc1cc(Nc2ncnc(-n3c(NCc4ccc(Cl)cc4C)nc4ccccc43)n2)cc(OC)c1OC [Compound 597]
